According to the Kinase Knowledgebase extract (Sharma et al. 2016):

Key:
Experiment in all cases: Enzyme Assay
PIK3CG (human) = PIK3CG (human) (UniProt P48736)
PIK3CA (human) = PIK3CA (human) (UniProt P42336)
PIK3CB (Human) = PIK3CB (Human) (UniProt P42338)
PIK3CD (Human) = PIK3CD (Human) (UniProt O00329)
Chain of PIK3CD (Human) (O00329 whole entry, looked up): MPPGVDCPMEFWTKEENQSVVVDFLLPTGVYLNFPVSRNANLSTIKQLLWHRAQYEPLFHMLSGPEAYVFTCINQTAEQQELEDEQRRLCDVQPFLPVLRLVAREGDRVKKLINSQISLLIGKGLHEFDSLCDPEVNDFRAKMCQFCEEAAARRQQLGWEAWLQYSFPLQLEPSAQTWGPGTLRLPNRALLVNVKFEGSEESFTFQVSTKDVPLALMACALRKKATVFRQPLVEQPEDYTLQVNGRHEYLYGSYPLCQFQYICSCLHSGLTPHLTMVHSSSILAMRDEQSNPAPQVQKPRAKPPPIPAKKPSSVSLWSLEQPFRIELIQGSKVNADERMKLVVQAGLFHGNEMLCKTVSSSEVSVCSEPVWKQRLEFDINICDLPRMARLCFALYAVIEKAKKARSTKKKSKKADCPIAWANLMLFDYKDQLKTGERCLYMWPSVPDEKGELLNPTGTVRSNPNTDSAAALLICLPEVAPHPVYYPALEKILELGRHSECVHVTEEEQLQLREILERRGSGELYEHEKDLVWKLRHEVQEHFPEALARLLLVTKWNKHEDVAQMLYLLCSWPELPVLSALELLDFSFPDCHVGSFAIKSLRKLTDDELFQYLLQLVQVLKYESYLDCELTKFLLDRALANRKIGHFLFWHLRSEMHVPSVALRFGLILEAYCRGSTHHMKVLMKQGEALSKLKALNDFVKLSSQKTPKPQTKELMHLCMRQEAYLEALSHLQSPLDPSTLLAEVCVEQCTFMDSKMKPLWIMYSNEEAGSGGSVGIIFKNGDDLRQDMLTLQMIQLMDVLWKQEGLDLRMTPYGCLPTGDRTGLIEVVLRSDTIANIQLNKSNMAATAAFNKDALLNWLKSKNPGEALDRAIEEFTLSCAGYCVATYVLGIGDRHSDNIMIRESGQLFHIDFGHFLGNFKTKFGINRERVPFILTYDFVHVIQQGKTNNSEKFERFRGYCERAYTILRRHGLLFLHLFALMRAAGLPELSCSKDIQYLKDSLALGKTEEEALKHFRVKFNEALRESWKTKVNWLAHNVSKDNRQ

Chain of PIK3CG (human) (P48736 whole entry, looked up): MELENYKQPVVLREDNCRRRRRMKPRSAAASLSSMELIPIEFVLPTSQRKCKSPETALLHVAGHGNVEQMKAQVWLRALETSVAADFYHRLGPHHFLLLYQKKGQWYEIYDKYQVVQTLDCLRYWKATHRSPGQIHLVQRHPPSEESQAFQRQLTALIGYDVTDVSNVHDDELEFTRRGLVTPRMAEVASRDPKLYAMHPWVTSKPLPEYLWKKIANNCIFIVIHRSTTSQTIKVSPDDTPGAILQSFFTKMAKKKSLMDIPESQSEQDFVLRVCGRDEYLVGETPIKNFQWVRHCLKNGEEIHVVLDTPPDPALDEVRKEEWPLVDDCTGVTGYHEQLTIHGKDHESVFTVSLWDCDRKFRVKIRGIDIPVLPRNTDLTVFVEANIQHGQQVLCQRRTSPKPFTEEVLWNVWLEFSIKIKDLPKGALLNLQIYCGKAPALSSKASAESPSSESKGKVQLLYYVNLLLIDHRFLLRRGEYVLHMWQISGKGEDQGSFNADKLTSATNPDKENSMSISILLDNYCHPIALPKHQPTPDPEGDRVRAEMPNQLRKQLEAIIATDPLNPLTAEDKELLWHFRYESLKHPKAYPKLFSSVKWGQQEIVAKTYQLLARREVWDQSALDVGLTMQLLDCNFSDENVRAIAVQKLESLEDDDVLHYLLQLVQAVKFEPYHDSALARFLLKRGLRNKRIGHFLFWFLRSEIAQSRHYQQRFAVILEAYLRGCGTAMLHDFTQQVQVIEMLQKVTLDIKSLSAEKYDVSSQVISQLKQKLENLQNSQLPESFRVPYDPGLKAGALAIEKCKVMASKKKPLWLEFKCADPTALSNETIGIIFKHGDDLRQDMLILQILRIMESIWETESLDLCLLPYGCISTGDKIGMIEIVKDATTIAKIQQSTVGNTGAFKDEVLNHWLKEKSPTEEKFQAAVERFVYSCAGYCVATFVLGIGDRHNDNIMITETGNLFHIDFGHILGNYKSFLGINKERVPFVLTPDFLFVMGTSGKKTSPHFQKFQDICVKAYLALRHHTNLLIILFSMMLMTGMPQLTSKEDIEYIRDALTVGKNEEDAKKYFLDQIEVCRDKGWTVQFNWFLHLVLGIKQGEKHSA
Chain of PIK3CB (Human) (P42338 whole entry, looked up): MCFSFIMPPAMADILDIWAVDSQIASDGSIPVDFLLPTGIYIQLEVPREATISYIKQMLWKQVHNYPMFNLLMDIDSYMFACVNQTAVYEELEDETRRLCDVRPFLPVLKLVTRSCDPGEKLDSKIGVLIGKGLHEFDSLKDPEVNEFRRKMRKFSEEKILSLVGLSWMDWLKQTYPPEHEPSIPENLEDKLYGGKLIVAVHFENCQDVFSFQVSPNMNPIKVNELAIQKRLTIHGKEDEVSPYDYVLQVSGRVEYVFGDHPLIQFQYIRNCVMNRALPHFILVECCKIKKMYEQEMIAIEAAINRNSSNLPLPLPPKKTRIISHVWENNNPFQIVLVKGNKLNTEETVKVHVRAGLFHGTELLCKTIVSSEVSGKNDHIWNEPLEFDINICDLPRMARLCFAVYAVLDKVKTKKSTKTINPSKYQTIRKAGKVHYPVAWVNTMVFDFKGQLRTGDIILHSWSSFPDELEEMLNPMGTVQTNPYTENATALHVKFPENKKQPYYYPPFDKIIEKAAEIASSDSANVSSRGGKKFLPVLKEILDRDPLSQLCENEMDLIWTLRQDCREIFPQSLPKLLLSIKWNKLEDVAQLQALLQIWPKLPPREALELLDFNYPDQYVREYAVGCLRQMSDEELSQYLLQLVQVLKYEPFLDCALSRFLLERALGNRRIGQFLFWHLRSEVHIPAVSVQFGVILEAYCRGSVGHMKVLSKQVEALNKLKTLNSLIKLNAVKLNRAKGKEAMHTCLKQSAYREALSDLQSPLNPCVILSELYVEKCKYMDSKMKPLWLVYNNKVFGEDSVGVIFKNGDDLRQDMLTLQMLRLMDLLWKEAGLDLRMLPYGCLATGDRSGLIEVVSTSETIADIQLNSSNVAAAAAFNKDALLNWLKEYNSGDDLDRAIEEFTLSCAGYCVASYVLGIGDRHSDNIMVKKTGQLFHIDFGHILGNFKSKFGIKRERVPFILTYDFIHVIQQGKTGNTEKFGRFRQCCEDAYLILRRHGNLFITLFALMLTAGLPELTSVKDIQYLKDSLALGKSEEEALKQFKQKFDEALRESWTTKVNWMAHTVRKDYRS
Chain of PIK3CA (human) (P42336 whole entry, looked up): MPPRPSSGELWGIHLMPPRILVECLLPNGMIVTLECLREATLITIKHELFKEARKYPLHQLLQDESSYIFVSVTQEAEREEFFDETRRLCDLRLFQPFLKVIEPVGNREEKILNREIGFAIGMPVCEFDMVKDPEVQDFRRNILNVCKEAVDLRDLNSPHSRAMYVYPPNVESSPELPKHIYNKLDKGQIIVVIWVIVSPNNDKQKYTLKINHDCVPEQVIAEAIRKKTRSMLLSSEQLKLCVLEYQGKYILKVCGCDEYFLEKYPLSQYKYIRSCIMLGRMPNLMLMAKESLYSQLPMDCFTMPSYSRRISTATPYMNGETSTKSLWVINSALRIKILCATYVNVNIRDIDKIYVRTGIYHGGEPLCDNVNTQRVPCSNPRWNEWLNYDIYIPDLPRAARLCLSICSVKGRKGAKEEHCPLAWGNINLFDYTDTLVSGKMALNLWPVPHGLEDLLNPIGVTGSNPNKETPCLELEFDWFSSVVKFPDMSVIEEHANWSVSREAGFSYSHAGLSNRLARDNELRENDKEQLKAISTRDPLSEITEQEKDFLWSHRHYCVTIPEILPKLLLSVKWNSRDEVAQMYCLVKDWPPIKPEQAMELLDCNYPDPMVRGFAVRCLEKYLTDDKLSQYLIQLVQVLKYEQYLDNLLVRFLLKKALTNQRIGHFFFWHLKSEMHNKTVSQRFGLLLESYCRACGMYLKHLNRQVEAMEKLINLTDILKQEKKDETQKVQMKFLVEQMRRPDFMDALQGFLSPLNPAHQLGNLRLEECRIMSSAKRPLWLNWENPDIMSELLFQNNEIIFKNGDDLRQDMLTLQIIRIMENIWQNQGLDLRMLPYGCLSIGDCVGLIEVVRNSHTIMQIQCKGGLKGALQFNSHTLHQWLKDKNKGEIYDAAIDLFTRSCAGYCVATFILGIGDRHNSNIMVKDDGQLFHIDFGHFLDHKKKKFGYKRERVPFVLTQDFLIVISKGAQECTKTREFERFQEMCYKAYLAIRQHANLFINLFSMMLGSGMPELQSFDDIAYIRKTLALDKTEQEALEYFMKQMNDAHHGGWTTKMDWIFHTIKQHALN

| Compound | IC50 (PIK3CG (human)) [nM] | IC50 (PIK3CA (human)) [nM] | IC50 (PIK3CB (Human)) [nM] | IC50 (PIK3CD (Human)) [nM] |
| --- | --- | --- | --- | --- |
| Cc1cccc2cc(Cn3nc(C#CCO)c4c(N)ncnc43)n(-c3ccccc3F)c(=O)c12 | 100 to 1000 | > 10000 | > 10000 |  |
| Cc1ccncc1-n1c(Cn2nc(I)c3c(N)ncnc32)cc2cccc(C)c2c1=O | 100 to 1000 |  | > 10000 |  |
| Cc1cccc2cc(Cn3nc(-c4cc(O)cc(F)c4)c4c(N)ncnc43)n(-c3ccccc3OCCN3CCOCC3)c(=O)c12 | 100 to 1000 |  |  |  |
| COc1cc(-c2nn(Cc3cc4cccc(C)c4c(=O)n3-c3ccccc3F)c3ncnc(N)c23)ccc1Cl | 100 to 1000 | > 10000 | > 10000 |  |
| Cc1ccccc1-n1c(Cn2nc(Cl)c3c(N)ncnc32)cc2cccc(C)c2c1=O | 100 to 1000 | > 10000 |  |  |
| Cc1cccc2cc(Cn3nc(C#C[C@@H](C)O)c4c(N)ncnc43)n(C3CC3)c(=O)c12 | 100 to 1000 | > 10000 | 100 to 1000 |  |
| Cc1cccc2cc(Cn3nc(-c4cccc(Cl)c4)c4c(N)ncnc43)n(-c3ccccc3F)c(=O)c12 | > 10000 |  | > 10000 |  |
| Cc1cccc2cc(Cn3nc(-c4ccc5nc(N)oc5c4)c4c(N)ncnc43)n(-c3ccccc3)c(=O)c12 | < 100 |  |  | 100 to 1000 |
| C=Cc1nn(Cc2cc3cccc(C)c3c(=O)n2-c2ccccc2)c2ncnc(N)c12 | 100 to 1000 |  |  | < 100 |
| Cc1cccnc1-n1c(Cn2nc(I)c3c(N)ncnc32)cc2cccc(C)c2c1=O | 100 to 1000 | > 10000 |  | 100 to 1000 |
| Cc1cccc2cc(Cn3nc(-c4cn[nH]c4)c4c(N)ncnc43)n(-c3ccccc3Cl)c(=O)c12 | 100 to 1000 | > 10000 | > 10000 |  |
| CC(Nc1ncnc2[nH]cnc12)c1cc2ccccc2c(=O)n1-c1ccccc1 (stereo unspecified) | 100 to 1000 | > 10000 |  | < 100 |
| Cc1ccccc1-n1c(Cn2nc(-c3cccc(Cl)c3)c3c(N)ncnc32)cc2cccc(C)c2c1=O | 100 to 1000 | > 10000 | > 10000 |  |
| Cc1ccccc1-n1c(Cn2nc(-c3cnn(CCO)c3)c3c(N)ncnc32)cc2cccc(C)c2c1=O | 100 to 1000 | > 10000 | > 10000 |  |
| Cc1cccc2cc(Cn3nc(-c4cccc(O)c4)c4c(N)ncnc43)n(-c3ccccc3OCCN3CCOCC3)c(=O)c12 | 100 to 1000 | > 10000 | > 10000 |  |
| COc1ccccc1-n1c(Cn2nc(I)c3c(N)ncnc32)cc2cccc(C)c2c1=O | 100 to 1000 | > 10000 | > 10000 |  |
| Cc1cccc2cc(Cn3nc(C(F)F)c4c(N)ncnc43)n(-c3ccccc3)c(=O)c12 | 100 to 1000 | > 10000 |  | < 100 |
| Cc1cccc2cc(Cn3nc(-c4cn[nH]c4)c4c(N)ncnc43)n(-c3ccccc3F)c(=O)c12 | 100 to 1000 | > 10000 |  |  |
| Cc1ccccc1-n1c(Cn2nc(I)c3c(N)nccc32)cc2cccc(C)c2c1=O | 100 to 1000 | > 10000 | > 10000 |  |
| Cc1ccccc1-n1c(Cn2nc(C(N)=O)c3c(N)ncnc32)cc2cccc(C)c2c1=O | 100 to 1000 | > 10000 |  | 100 to 1000 |
| Cc1cccc2cc(Cn3nc(C#C[C@@H](C)O)c4c(N)ncnc43)n(-c3ccccc3Cl)c(=O)c12 | 100 to 1000 | > 10000 | > 10000 |  |
| Cc1cccnc1-n1c(Cn2nc(-c3cc(O)cc(F)c3)c3c(N)ncnc32)cc2ccccc2c1=O | 100 to 1000 | > 10000 | > 10000 |  |

| Compound | IC50 (PIK3CG (human)) [nM] | IC50 (PIK3CA (human)) [nM] | IC50 (PIK3CB (Human)) [nM] | IC50 (PIK3CD (Human)) [nM] |
| --- | --- | --- | --- | --- |
| Cc1cccc2cc(Cn3nc(-c4cn[nH]c4)c4c(N)ncnc43)n(-c3ccccc3)c(=O)c12 | 100 to 1000 |  |  | < 100 |
| Cc1cccc2cc(Cn3nc(-c4cn[nH]c4)c4c(N)ncnc43)n(-c3cccc(F)c3)c(=O)c12 | 100 to 1000 | > 10000 | > 10000 |  |
| COc1cccc(-c2nn(Cc3cc4cccc(C)c4c(=O)n3-c3ccccc3C)c3ncnc(N)c23)c1 | 100 to 1000 | > 10000 |  | 100 to 1000 |
| Cc1ccccc1-n1c(Cn2nc(-c3cccc(F)c3)c3c(N)ncnc32)cc2cccc(C)c2c1=O | 100 to 1000 | > 10000 | > 10000 |  |
| C=Cc1nn(Cc2cc3cccc(C)c3c(=O)n2-c2ccccc2C)c2ncnc(N)c12 | 100 to 1000 | > 10000 | > 10000 |  |
| Cc1cccc2cc(Cn3nc(-c4cccc(O)c4)c4c(N)ncnc43)n(-c3ccccc3F)c(=O)c12 | 100 to 1000 | > 10000 | > 10000 |  |
| Cc1cccc2cc(Cn3nc(C=C4CCNC4=O)c4c(N)ncnc43)n(-c3ccccc3F)c(=O)c12 | > 10000 | > 10000 | > 10000 |  |
| Cc1cccc2cc(Cn3nc(-c4ccc(O)cc4)c4c(N)ncnc43)n(-c3ccccc3F)c(=O)c12 | 100 to 1000 |  |  |  |
| Cc1ccccc1-n1c(Cn2nc(-c3ccc(F)cc3)c3c(N)ncnc32)cc2cccc(C)c2c1=O | 100 to 1000 | > 10000 | > 10000 |  |
| Cc1cccc2cc(Cn3nc(-c4cc(O)cc(F)c4)c4c(N)ncnc43)n(C(C)C)c(=O)c12 | 100 to 1000 |  | 100 to 1000 |  |
| CCC(Nc1ncnc2[nH]cnc12)c1cc2cccc(C)c2c(=O)n1-c1ccccc1C (stereo unspecified) | 100 to 1000 | > 10000 |  | < 100 |
| COc1ccccc1-n1c(Cn2nc(C#C[C@@H](C)O)c3c(N)ncnc32)cc2cccc(C)c2c1=O | 100 to 1000 | > 10000 | > 10000 |  |
| CCc1ccccc1-n1c(Cn2nc(C#C[C@@H](C)O)c3c(N)ncnc32)cc2cccc(C)c2c1=O | 100 to 1000 | > 10000 |  |  |
| Cc1ccccc1-n1c(Cn2nc(-c3cccc(O)c3)c3c(N)ncnc32)cc2ccccc2c1=O | 100 to 1000 | > 10000 |  |  |
| CC(=O)Nc1nc2ccc(-c3nn(Cc4cc5cccc(C)c5c(=O)n4-c4ccccc4)c4ncnc(N)c34)cc2o1 | 100 to 1000 |  |  | 100 to 1000 |
| CCC(Nc1ncnc2[nH]cnc12)c1cc2cccc(C)c2c(=O)n1C1CCC1 (stereo unspecified) | 100 to 1000 | > 10000 |  | < 100 |
| Cc1cccc2cc(Cn3nc(I)c4c(N)ncnc43)n(-c3ccccc3OCCN3CCOCC3)c(=O)c12 | 100 to 1000 | > 10000 | > 10000 |  |
| Cc1cccc2cc(C(C)Nc3ncnc4[nH]cnc34)n(C3CCOCC3)c(=O)c12 (stereo unspecified) | 100 to 1000 |  |  | < 100 |
| Cc1ccccc1-n1c(Cn2nc(-c3ccc(Cl)cc3)c3c(N)ncnc32)cc2cccc(C)c2c1=O | 100 to 1000 | > 10000 |  | 100 to 1000 |
| Cc1cccc2cc(Cn3nc(-c4cn[nH]c4)c4c(N)ncnc43)n(-c3ccccc3C(F)(F)F)c(=O)c12 | 100 to 1000 | > 10000 |  | < 100 |
| Cc1cccc2cc(Cn3nc(-c4cccc(O)c4)c4c(N)ncnc43)n(C3CCCC3)c(=O)c12 | 100 to 1000 | > 10000 |  |  |
| Cc1cccc2cc(Cn3nc(I)c4c(N)ncnc43)n(-c3ccccc3F)c(=O)c12 | 100 to 1000 |  |  |  |

| Compound | IC50 (PIK3CG (human)) [nM] | IC50 (PIK3CA (human)) [nM] | IC50 (PIK3CB (Human)) [nM] | IC50 (PIK3CD (Human)) [nM] |
| --- | --- | --- | --- | --- |
| COc1ccc(-c2nn(Cc3cc4cccc(C)c4c(=O)n3-c3ccccc3F)c3ncnc(N)c23)cc1OC | 100 to 1000 | > 10000 |  | 100 to 1000 |
| Cc1cccc2cc(Cn3nc(-c4ccc(F)c(O)c4)c4c(N)ncnc43)n(-c3ccccc3F)c(=O)c12 | 100 to 1000 | > 10000 | > 10000 |  |
| Cc1cccnc1-n1c(Cn2nc(-c3cccc(O)c3)c3c(N)ncnc32)cc2cccc(C)c2c1=O | 100 to 1000 | > 10000 | > 10000 |  |
| Cc1cccc2cc(C(C)Nc3ncnc4[nH]cnc34)n(-c3cccc(F)c3)c(=O)c12 (stereo unspecified) | 100 to 1000 |  |  | < 100 |
| C=C(C)c1nn(Cc2cc3cccc(C)c3c(=O)n2-c2ccccc2)c2ncnc(N)c12 | 100 to 1000 | > 10000 |  | < 100 |
| Cc1cccc2cc(C(C)Nc3ncnc4[nH]cnc34)n(C(C)C)c(=O)c12 (stereo unspecified) | 100 to 1000 |  |  | < 100 |
| Cc1cccc2cc(Cn3nc(I)c4c(N)ncnc43)n(-c3ccccc3Cl)c(=O)c12 | 100 to 1000 |  | > 10000 |  |
| Cc1ccccc1-n1c(Cn2nc(C#CCO)c3c(N)ncnc32)cc2cccc(C)c2c1=O | 100 to 1000 | > 10000 | > 10000 |  |
| Nc1ncnc2c1c(-c1cn[nH]c1)nn2Cc1cc2cccc(F)c2c(=O)n1-c1ccccc1F |  | > 10000 | > 10000 | 100 to 1000 |
| Cc1ccccc1-n1c(Cn2nc(-c3cnn(C)c3)c3c(N)ncnc32)cc2cccc(C)c2c1=O | 100 to 1000 | > 10000 | > 10000 |  |
| Cc1cccc2cc(Cn3nc(-c4ccc5nc(N)sc5c4)c4c(N)ncnc43)n(-c3ccccc3)c(=O)c12 |  | < 100 | 100 to 1000 | < 100 |
| Cc1cccc2cc(Cn3nc(C#C[C@@H](C)O)c4c(N)ncnc43)n(-c3ccccc3F)c(=O)c12 | 100 to 1000 | > 10000 | > 10000 |  |
| Cc1ccccc1-n1c(Cn2nc(-c3cc(O)cc(F)c3)c3c(N)ncnc32)cc2cccc(F)c2c1=O | 100 to 1000 | > 10000 |  |  |
| CNc1ncc(Cl)c(N[C@@H](C)c2cc3cccc(C)c3c(=O)n2-c2ccccc2)n1 | 100 to 1000 | > 10000 |  | 100 to 1000 |
| C=Cc1nn(Cc2cc3cccc(C)c3c(=O)n2-c2ccccc2F)c2ncnc(N)c12 |  | > 10000 | > 10000 | 100 to 1000 |
| C[C@H](Nc1ncnc2[nH]cnc12)c1cc2cccc(Cl)c2c(=O)n1C1CC1 |  | 100 to 1000 | < 100 | < 100 |
| COc1ccc(-c2nn(Cc3cc4cccc(C)c4c(=O)n3-c3ccccc3C)c3ncnc(N)c23)cc1OC |  | > 10000 | > 10000 | 100 to 1000 |
| Cc1ccccc1-n1c(Cn2nc(C(=O)NO)c3c(N)ncnc32)cc2cccc(C)c2c1=O | 100 to 1000 | > 10000 |  | 100 to 1000 |
| Cc1cccc2cc([C@H](C)Nc3ncnc4[nH]c(O)nc34)n(-c3ccccc3)c(=O)c12 |  | > 10000 | > 10000 | > 10000 |
| Cc1cccc2cc(Cn3nc(Cl)c4c(N)ncnc43)n(-c3ccccc3F)c(=O)c12 |  | > 10000 | > 10000 | 100 to 1000 |
| Cc1cccc2cc(Cn3nc(-c4ccc(Cl)c(O)c4)c4c(N)ncnc43)n(C3CCCC3)c(=O)c12 | 100 to 1000 |  |  | 100 to 1000 |
